{"source": "patent US6605666B1", "about": "“Polyurethane film-forming dispersions in alcohol-water system” (3M Innovative Properties Company, priority 2000, dated 2003)", "key": {"[1]": {"test": "Spraying coated dispersion with water solutions (cospraying)", "format": "physicochemical", "conditions": "water solution of the compound sprayed on knife coated dispersion of Example 9B", "excerpt": "For an ionic dispersion, a solution containing polyion of the opposite charge can be applied to the film to create an instantaneous tack-free film. For example, an anionic dispersion can be coated and before it has formed a film, a solution containing polyvalent cation is sprayed on the coating's surface to yield a tack free film. This method is commonly referred to as “cospraying.” A preferred solution contains water and metal cations, such as calcium and magnesium. Preferably, the film becomes tack free almost instantaneously after spraying the water solution (i.e., within a minute, preferably within a few seconds). In applications where very rapid tack-free times are required, such as in preoperative preparation for surgery, it may be beneficial to mist or otherwise wet the surface of the film. By “tack-free,” it is generally meant that the misted film contains little or no adhesion to other substrates at ambient conditions, typically from about 20° to 30° C.\nThe dispersions of Example 9B we knife coated onto a polypropylene coated paper release liner and sprayed with water solutions containing the following materials. The film appearance was recorded in the Result column."}, "[2]": {"test": "Stability of dispersions on storage / standing", "format": "physicochemical", "conditions": "Example 6 dispersions", "method": "The particle size of certain dispersions was measured on a Coulter LS 100 laser Particle Size Analyzer equipped with a microvolume module. Usually, the particle size was measured one day after dispersions were made. The particle size was measured again about 30 days after the dispersions were made. During this period, the dispersions were sealed and stored at room temperature. Samples were diluted in the same solvent mixture as the original dispersion to make the measurement. The results are shown in Table 2 below, which indicate that the dispersions have mean particle sizes generally under about 5 to 6 micrometers (μm). All dispersions appear to be stable after about 30 days.\nAfter adding the prepolymer, each example was adjusted to a pH of about 7.0. To Example 2B was added a 40% solids, water based polyurethane pressure sensitive adhesive (PSA) (WD4006 from H.B. Fuller, St. Paul, Minn.). The PSA was added to increase adhesion to skin. The PSA was added to the alcohol-water solvent system prior to prepolymer addition. The EDA was added and the reaction mixture stirred at high speed for 20 minutes. Stable dispersions were obtained in call cases.\nThe dispersions with and without iodine anti-microbial agents were applied to human skin in small patches and allowed to dry. Adhesion was very good for all samples."}}, "data": [{"molecule": "O=C([O-])CC(O)(CC(=O)[O-])C(=O)[O-].O=C([O-])CC(O)(CC(=O)[O-])C(=O)[O-].[Ca+2].[Ca+2].[Ca+2]", "note": "[Calcium Citrate]", "values": [{"measurement": "Result (film appearance)", "setting": "[1]", "result": "No effect"}]}, {"molecule": "povidone-iodine", "values": [{"measurement": "stability of anti-microbial agent in the dispersions upon standing", "setting": "[2]", "result": "split out of the dispersions as a separate phase upon standing"}]}, {"molecule": "[Cl-].[Na+]", "note": "[Sodium Chloride]", "values": [{"measurement": "Result (film appearance)", "setting": "[1]", "result": "Random coagulation."}]}, {"molecule": "[Ca+2].[Cl-].[Cl-]", "note": "[Calcium chloride]", "values": [{"measurement": "Result (film appearance)", "setting": "[1]", "result": "Almost instantaneous tack-free film."}]}]}
